Columns and labels:
[1] = target: Histone-lysine N-methyltransferase 2A/WDR5 (Homo sapiens, UniProt P61964); assay: Inhibition of MLL1/WDR5 (unknown origin) protein-protein interaction incubated for 2 hrs by FP analysis; assay type: protein assay
MV4-11 [2] = assay: cells; assay type: functional, cell-based; conditions: Homo sapiens, MV4-11, 72 h
Description: Antiproliferative activity against human MV4-11 cells assessed as inhibition of cell growth measured after 72 hrs by CellTiterGlo assay

Histone deacetylase 3 = Histone deacetylase 3 (Homo sapiens, UniProt O15379); assay: Inhibition of HDAC3 (unknown origin) by fluorescence based assay
Histone deacetylase 1 = Histone deacetylase 1 (Homo sapiens, UniProt Q13547); assay: Inhibition of HDAC1 (unknown origin) by fluorescence based assay
MOLM-13 = assay: cells; assay type: functional, cell-based; conditions: Homo sapiens, MOLM-13, 72 h
Description: Antiproliferative activity against human MOLM-13 cells assessed as inhibition of cell growth measured after 72 hrs by CellTiterGlo assay

[3] = target: T1, Protein deacetylase HDAC6 (Homo sapiens, UniProt Q9UBN7); assay: Inhibition of HDAC6 (unknown origin) by fluorescence based assay
T1 sequence (Q9UBN7 whole entry): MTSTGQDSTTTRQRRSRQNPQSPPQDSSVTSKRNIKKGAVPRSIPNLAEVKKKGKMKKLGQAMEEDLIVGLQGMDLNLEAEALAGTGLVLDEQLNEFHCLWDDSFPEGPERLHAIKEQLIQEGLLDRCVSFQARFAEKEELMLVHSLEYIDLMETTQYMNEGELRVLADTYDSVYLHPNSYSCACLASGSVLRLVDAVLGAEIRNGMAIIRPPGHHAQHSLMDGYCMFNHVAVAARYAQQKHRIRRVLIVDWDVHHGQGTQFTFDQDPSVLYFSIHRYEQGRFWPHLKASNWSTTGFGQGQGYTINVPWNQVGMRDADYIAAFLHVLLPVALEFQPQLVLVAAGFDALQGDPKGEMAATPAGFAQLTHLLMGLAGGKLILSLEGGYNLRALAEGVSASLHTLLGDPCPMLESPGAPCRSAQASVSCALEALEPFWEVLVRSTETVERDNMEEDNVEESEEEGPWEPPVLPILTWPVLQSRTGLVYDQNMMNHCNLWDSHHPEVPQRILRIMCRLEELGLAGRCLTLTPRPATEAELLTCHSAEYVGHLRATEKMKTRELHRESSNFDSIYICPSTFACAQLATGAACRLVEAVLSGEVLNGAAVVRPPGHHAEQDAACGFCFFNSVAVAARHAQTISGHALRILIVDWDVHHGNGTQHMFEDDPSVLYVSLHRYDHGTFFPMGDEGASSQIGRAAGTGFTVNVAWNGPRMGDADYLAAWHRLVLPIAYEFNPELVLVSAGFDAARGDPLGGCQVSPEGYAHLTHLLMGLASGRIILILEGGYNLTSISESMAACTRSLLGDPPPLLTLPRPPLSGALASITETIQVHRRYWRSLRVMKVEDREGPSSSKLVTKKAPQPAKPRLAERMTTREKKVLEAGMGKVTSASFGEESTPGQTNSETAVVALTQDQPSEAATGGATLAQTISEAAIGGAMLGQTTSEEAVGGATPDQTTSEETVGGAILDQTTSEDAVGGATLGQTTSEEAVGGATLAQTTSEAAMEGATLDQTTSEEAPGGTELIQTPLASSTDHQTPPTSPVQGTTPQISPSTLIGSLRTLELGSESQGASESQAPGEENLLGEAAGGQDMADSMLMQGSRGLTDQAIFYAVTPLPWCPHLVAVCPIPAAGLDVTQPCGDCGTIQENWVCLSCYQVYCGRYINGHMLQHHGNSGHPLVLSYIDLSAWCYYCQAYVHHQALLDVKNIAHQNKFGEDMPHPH

Histone deacetylase 4 = Histone deacetylase 4 (Homo sapiens, UniProt P56524); assay: Inhibition of HDAC4 (unknown origin) by fluorescence based assay
[4] = target: Histone-lysine N-methyltransferase 2A (Homo sapiens, UniProt Q03164); assay: Inhibition of MLL1 (unknown origin) by fluorescence based assay
Histone deacetylase 2 = Histone deacetylase 2 (Homo sapiens, UniProt Q92769); assay: Inhibition of HDAC2 (unknown origin) by fluorescence based assay
Histone deacetylase 8 = target: T2, Histone deacetylase 8 (Homo sapiens, UniProt Q9BY41); assay: Inhibition of HDAC8 (unknown origin) by fluorescence based assay
T2 sequence (Q9BY41 whole entry): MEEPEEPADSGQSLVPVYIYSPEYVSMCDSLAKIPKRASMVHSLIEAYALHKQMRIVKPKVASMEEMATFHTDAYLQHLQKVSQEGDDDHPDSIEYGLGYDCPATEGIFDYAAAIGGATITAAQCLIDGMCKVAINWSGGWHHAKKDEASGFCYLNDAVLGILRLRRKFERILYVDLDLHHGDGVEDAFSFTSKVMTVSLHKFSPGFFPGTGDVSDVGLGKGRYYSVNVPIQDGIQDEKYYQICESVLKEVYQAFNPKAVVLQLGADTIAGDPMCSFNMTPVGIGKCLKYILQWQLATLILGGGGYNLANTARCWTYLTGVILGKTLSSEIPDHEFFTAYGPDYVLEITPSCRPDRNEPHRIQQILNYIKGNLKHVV

Histone deacetylase 11 = target: T3, Histone deacetylase 11 (Homo sapiens, UniProt Q96DB2); assay: Inhibition of HDAC11 (unknown origin) by fluorescence based assay
T3 sequence (Q96DB2 whole entry): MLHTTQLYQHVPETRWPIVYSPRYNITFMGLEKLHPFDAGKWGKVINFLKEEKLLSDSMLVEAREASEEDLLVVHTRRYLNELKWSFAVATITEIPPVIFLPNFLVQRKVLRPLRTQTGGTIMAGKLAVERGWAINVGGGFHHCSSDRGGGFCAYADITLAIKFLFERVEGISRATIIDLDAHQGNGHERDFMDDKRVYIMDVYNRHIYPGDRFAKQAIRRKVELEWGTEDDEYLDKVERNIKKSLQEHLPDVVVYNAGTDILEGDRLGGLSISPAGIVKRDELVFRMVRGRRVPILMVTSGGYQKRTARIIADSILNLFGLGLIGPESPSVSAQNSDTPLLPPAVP

MV4-11 [5] = assay: Induction of apoptosis in human MV4-11 cells assessed as late apoptotic cells at 200 nmol/L incubated for 72 hrs by Annexin V/PI staining based flow cytometry analysis (reference value: 5.14%); assay type: functional
MV4-11 [6] = assay: Induction of apoptosis in human MV4-11 cells assessed as early apoptotic cells at 200 nmol/L incubated for 72 hrs by Annexin V/PI staining based flow cytometry analysis (reference value: 4.17 %); assay type: functional
MV4-11 [7] = assay: Induction of apoptosis in human MV4-11 cells assessed as viable cells at 200 nmol/L incubated for 72 hrs by Annexin V/PI staining based flow cytometry analysis (reference value: 90.23%); assay type: functional
MV4-11 [8] = assay: Induction of apoptosis in human MV4-11 cells assessed as necrotic cells at 200 nmol/L incubated for 72 hrs by Annexin V/PI staining based flow cytometry analysis (reference value: 0.46%); assay type: functional

Sequence of Histone deacetylase 1 (Q13547 whole entry): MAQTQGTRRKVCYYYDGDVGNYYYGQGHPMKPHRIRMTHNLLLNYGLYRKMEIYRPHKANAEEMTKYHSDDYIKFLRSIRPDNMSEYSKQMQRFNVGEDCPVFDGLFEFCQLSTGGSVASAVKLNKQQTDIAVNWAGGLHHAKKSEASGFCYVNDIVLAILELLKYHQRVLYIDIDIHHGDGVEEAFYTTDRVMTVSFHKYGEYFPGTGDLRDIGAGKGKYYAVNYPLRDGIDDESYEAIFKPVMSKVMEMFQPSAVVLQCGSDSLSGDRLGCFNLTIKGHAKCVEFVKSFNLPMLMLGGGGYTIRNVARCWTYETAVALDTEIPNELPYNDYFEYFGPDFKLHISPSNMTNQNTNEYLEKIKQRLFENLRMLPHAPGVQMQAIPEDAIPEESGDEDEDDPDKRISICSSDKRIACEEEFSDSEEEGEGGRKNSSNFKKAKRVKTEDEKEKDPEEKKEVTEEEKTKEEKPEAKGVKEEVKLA
Sequence of Histone deacetylase 3 (O15379 whole entry): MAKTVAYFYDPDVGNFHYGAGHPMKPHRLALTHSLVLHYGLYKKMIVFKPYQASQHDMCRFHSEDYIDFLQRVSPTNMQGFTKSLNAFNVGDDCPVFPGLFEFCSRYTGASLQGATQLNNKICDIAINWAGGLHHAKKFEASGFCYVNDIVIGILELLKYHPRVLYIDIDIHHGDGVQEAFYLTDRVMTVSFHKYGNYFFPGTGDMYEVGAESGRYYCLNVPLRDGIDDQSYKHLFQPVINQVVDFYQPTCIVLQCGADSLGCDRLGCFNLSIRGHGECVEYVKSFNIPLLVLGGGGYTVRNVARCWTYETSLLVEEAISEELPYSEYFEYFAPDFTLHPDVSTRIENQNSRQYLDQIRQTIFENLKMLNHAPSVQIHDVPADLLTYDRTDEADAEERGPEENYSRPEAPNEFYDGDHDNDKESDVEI
Sequence of Histone-lysine N-methyltransferase 2A (Q03164 1-2718 limits assumed): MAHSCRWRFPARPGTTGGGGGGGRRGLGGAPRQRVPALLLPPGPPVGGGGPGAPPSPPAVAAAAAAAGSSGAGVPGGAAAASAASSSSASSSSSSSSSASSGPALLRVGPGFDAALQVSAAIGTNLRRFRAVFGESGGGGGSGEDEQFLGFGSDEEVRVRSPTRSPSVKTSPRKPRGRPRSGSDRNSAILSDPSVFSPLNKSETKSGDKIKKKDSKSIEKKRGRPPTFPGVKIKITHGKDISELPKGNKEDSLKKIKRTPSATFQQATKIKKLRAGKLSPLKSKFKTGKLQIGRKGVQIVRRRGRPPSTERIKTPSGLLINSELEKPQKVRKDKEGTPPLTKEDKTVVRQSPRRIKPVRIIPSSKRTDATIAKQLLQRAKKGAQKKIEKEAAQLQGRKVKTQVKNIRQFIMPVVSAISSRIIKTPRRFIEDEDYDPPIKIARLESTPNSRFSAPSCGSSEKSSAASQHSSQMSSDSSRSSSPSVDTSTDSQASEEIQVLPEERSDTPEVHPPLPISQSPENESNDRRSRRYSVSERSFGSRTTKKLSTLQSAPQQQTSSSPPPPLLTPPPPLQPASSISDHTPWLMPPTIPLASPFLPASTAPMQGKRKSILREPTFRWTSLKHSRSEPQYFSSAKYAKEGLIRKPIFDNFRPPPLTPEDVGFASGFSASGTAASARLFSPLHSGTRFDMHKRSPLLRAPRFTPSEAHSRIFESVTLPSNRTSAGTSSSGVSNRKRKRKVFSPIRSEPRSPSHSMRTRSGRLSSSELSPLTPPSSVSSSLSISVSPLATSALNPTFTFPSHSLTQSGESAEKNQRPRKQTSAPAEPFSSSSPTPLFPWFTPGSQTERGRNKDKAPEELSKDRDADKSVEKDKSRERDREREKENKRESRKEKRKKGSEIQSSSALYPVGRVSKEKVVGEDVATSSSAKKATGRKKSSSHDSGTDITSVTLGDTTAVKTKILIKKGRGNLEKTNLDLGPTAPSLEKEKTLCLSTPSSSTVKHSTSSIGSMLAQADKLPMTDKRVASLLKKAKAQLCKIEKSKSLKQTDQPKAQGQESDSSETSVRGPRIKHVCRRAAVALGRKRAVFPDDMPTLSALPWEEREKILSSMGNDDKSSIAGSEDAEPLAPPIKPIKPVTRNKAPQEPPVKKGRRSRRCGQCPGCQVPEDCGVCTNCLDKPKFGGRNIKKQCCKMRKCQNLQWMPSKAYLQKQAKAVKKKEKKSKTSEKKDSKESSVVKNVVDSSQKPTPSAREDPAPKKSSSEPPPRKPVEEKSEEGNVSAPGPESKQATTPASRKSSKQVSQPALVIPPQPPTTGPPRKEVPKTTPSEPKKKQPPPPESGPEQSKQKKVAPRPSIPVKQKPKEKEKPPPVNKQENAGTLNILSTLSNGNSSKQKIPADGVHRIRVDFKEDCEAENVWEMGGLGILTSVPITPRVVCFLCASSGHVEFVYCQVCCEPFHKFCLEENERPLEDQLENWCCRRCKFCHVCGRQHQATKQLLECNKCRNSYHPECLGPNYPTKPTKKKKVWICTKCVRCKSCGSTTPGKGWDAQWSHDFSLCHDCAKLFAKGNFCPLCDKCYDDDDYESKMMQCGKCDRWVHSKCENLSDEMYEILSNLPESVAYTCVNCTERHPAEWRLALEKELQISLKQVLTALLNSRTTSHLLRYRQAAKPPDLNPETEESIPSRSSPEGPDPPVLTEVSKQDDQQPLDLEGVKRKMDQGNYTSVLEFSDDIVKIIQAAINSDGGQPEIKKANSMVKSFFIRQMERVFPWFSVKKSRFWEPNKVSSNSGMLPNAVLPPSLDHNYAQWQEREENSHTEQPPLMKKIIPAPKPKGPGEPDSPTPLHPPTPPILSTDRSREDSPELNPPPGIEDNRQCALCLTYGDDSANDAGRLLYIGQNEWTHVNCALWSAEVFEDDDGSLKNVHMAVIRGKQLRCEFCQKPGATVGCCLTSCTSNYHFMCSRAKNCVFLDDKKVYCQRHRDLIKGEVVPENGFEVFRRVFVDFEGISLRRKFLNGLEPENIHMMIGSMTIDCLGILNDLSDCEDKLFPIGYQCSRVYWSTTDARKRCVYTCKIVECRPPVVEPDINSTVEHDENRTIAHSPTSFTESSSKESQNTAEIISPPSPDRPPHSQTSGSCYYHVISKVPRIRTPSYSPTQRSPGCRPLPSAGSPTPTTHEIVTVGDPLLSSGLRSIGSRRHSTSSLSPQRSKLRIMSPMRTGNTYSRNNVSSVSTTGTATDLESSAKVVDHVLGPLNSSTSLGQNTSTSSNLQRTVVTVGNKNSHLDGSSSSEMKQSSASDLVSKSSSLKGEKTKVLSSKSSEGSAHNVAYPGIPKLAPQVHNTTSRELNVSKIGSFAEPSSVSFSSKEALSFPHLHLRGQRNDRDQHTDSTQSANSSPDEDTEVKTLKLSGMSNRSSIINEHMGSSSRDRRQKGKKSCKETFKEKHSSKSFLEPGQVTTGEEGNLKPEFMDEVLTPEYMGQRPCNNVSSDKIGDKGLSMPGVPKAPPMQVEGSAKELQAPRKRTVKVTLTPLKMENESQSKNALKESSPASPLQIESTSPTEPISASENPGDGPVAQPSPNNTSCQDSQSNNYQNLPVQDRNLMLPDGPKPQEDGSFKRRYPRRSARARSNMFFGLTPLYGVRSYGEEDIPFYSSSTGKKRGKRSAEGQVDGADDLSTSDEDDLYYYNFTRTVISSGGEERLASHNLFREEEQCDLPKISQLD
Sequence of Histone-lysine N-methyltransferase 2A (Q03164 2719-3969 limits assumed): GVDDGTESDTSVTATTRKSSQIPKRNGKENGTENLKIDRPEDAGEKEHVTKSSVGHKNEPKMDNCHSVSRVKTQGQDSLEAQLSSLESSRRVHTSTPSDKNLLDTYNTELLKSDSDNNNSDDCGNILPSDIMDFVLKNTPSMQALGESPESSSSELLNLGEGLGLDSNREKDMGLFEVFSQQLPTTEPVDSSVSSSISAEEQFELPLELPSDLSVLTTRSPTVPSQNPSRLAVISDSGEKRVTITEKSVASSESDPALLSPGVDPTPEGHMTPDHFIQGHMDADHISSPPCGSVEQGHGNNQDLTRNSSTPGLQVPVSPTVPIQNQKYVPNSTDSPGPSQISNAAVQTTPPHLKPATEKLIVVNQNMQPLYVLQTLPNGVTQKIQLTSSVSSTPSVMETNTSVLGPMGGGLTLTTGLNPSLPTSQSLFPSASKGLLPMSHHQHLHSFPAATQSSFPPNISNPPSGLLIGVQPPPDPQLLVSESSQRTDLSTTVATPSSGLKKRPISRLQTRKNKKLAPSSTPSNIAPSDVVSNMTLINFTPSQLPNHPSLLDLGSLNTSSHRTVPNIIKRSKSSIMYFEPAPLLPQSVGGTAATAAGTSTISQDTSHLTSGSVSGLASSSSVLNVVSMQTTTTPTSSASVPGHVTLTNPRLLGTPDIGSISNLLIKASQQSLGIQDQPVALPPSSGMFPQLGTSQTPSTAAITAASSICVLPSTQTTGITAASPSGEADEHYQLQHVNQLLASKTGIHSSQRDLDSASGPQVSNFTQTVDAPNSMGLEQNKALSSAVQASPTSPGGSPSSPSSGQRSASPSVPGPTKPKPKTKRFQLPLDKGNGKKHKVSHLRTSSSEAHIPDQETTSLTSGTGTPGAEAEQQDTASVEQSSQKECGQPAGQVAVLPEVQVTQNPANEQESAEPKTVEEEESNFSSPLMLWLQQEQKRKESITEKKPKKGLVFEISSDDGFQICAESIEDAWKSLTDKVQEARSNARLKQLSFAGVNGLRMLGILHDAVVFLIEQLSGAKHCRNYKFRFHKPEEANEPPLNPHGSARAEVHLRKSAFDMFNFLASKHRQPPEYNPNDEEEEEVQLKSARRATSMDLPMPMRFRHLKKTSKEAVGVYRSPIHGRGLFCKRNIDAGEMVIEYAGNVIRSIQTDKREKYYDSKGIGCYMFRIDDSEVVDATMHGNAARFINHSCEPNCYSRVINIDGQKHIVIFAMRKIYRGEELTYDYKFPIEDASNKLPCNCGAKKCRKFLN

Work on `Cc1c(F)c(N)cc(C(=O)Nc2cc(-c3ccc(NC(=O)Cc4ccc(/C=C/C(=O)NO)cc4)cc3)ccc2N2CCN(C)CC2)c1Cl` yielded an IC50 [1] of 69 nM, an IC50 (MV4-11 [2]) of 115 nM and an IC50 (Histone deacetylase 3) of 663 nM. The IC50 (Histone deacetylase 1) was 831 nM, the IC50 (MOLM-13) was 310 nM and the IC50 [3] was 157 nM.
With `Cc1c(F)c(N)cc(C(=O)Nc2cc(-c3ccc(NC(=O)c4ccc(CC(=O)NO)cc4)cc3)ccc2N2CCN(C)CC2)c1Cl` the IC50 [1] was 226 nM.
`Cc1c(F)c(N)cc(C(=O)Nc2cc(-c3ccc(NC(=O)CCc4ccc(/C=C/C(=O)NO)cc4)cc3)ccc2N2CCN(C)CC2)c1Cl` showed an IC50 [1] of 382 nM, an IC50 (MV4-11 [2]) of 145 nM and an IC50 (Histone deacetylase 3) of 586 nM. The IC50 (Histone deacetylase 1) was 925 nM, the IC50 (MOLM-13) was 3220 nM and the IC50 [3] was 157 nM.
In the case of `Cc1c(F)c(N)cc(C(=O)Nc2cc(-c3ccc(NC(=O)CCCCCC(=O)NO)cc3)ccc2N2CCN(C)CC2)c1Cl`, the IC50 [1] is reported as 181 nM.
`Cc1c(F)c(N)cc(C(=O)Nc2cc(-c3ccc(C(=O)NCCCCC(=O)NO)cc3)ccc2N2CCN(C)CC2)c1Cl` showed an IC50 [1] of 40 nM.
`Cc1c(F)c(N)cc(C(=O)Nc2cc(-c3ccc(C(=O)NCCCCCC(=O)NO)cc3)ccc2N2CCN(C)CC2)c1Cl` gave an IC50 [1] of 71 nM.
`Cc1c(F)c(N)cc(C(=O)Nc2cc(-c3ccc(NC(=O)CCCCCCCC(=O)NO)cc3)ccc2N2CCN(C)CC2)c1Cl` gave an IC50 [1] of 230 nM.
`Cc1c(F)c(N)cc(C(=O)Nc2cc(-c3ccc(NC(=O)CCCCC(=O)NO)cc3)ccc2N2CCN(C)CC2)c1Cl` was tested, and the IC50 [1] was 33 nM.
For `Cc1c(F)c(N)cc(C(=O)Nc2cc(-c3ccc(NC(=O)CCCC(=O)NO)cc3)ccc2N2CCN(C)CC2)c1Cl`, the IC50 [1] was 43 nM.
Compound `Cc1c(F)c(N)cc(C(=O)Nc2cc(-c3ccc(NC(=O)CCCCCCC(=O)NO)cc3)ccc2N2CCN(C)CC2)c1Cl` has an IC50 [1] of 41 nM, an IC50 (Histone deacetylase 4) of 3960 nM and an IC50 [4] of 392 nM. The IC50 (Histone deacetylase 2) was 99 nM, the IC50 (Histone deacetylase 8) was over 10000 nM and the IC50 (Histone deacetylase 11) was 7610 nM.
`Cc1c(F)c(N)cc(C(=O)Nc2cc(-c3ccc(C(=O)NCCCCCCC(=O)NO)cc3)ccc2N2CCN(C)CC2)c1Cl` was tested, and the IC50 [1] was 40 nM.
Work on `Cc1c(F)c(N)cc(C(=O)Nc2cc(-c3ccc(C(=O)NCCCCCCCC(=O)NO)cc3)ccc2N2CCN(C)CC2)c1Cl` yielded an IC50 [1] of 188 nM.
`Cc1c(F)c(N)cc(C(=O)Nc2cc(-c3ccc(NC(=O)c4ccc(/C=C/C(=O)NO)cc4)cc3)ccc2N2CCN(C)CC2)c1Cl` showed an IC50 [1] of 435 nM, an IC50 (MV4-11 [2]) of 122 nM and an IC50 (Histone deacetylase 3) of 5900 nM. For the same compound, the IC50 (Histone deacetylase 1) was 6980 nM, the IC50 (MOLM-13) was 2580 nM and the IC50 [3] was 1200 nM.
With `Cc1c(F)c(N)cc(C(=O)Nc2cc(-c3ccc(C(=O)Nc4ccccc4N)cc3)ccc2N2CCN(C)CC2)c1Cl` the IC50 [1] was 215 nM.
Compound `Cc1c(F)c(N)cc(C(=O)Nc2cc(-c3ccc(C(=O)NCCCC(=O)NO)cc3)ccc2N2CCN(C)CC2)c1Cl` has an IC50 [1] of 30 nM.
`Cc1c(F)c(N)cc(C(=O)Nc2cc(-c3ccc(NC(=O)Cc4ccc(C(=O)NO)cc4)cc3)ccc2N2CCN(C)CC2)c1Cl` gave an IC50 [1] of 87 nM.
Work on `Cc1c(F)c(N)cc(C(=O)Nc2cc(-c3ccc(NC(=O)c4ccccc4N)cc3)ccc2N2CCN(C)CC2)c1Cl` yielded an IC50 [1] of 410 nM and an IC50 (Histone deacetylase 3) of 10000 nM.
`O=C(CCCCCCC(=O)Nc1ccccc1)NO` [VORINOSTAT] showed an Activity (MV4-11 [5]) of 20.55%, an Activity (MV4-11 [6]) of 14.43% and an Activity (MV4-11 [7]) of 63.59%. It also gave an Activity (MV4-11 [8]) of 1.42%.
